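Following 48 hours of exposure in 96-well plates, responses at five concentrations were used to interpolate endpoints linearly. The concentration for 50% growth inhibition is given as GI50. TGI marks complete inhibition of growth.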
How the values were obtained:
Assay in all cases: NCI anticancer screen, dose series, 48 h
786-0 renal = system: 786-0 renal
A498 renal = system: A498 renal
A549 NSCLC = system: A549 NSCLC
ACHN renal = system: ACHN renal
BT-549 breast = system: BT-549 breast
CAKI-1 renal = system: CAKI-1 renal
CCRF-CEM leukemia = system: CCRF-CEM leukemia
COLO 205 colon = system: COLO 205 colon
DU-145 prostate = system: DU-145 prostate
EKVX NSCLC = system: EKVX NSCLC
HCC-2998 colon = system: HCC-2998 colon
HCT-116 colon = system: HCT-116 colon
HCT-15 colon = system: HCT-15 colon
HL-60(TB) leukemia = system: HL-60(TB) leukemia
HOP-62 NSCLC = system: HOP-62 NSCLC
HOP-92 NSCLC = system: HOP-92 NSCLC
HS 578T breast = system: HS 578T breast
HT29 colon = system: HT29 colon
IGROV1 ovarian = system: IGROV1 ovarian
K-562 leukemia = system: K-562 leukemia
KM12 colon = system: KM12 colon
LOX IMVI melanoma = system: LOX IMVI melanoma
M14 melanoma = system: M14 melanoma
MALME-3M melanoma = system: MALME-3M melanoma
MCF7 breast = system: MCF7 breast
MDA-MB-231 breast = system: MDA-MB-231 breast
MDA-MB-435 = system: MDA-MB-435
MOLT-4 leukemia = system: MOLT-4 leukemia
NCI-H226 lung = system: NCI-H226 lung
NCI-H23 lung = system: NCI-H23 lung
NCI-H460 lung = system: NCI-H460 lung
NCI-H522 lung = system: NCI-H522 lung
NCI/ADR-RES ovarian = system: NCI/ADR-RES ovarian
OVCAR-3 ovarian = system: OVCAR-3 ovarian
OVCAR-4 ovarian = system: OVCAR-4 ovarian
OVCAR-5 ovarian = system: OVCAR-5 ovarian
OVCAR-8 ovarian = system: OVCAR-8 ovarian
PC-3 prostate = system: PC-3 prostate
RPMI-8226 leukemia = system: RPMI-8226 leukemia
RXF 393 renal = system: RXF 393 renal
SF-268 CNS = system: SF-268 CNS
SF-295 CNS = system: SF-295 CNS
SF-539 CNS = system: SF-539 CNS
SK-MEL-2 melanoma = system: SK-MEL-2 melanoma
SK-MEL-28 melanoma = system: SK-MEL-28 melanoma
SK-MEL-5 melanoma = system: SK-MEL-5 melanoma
SK-OV-3 ovarian = system: SK-OV-3 ovarian
SN12C renal = system: SN12C renal
SNB-19 CNS = system: SNB-19 CNS
SNB-75 CNS = system: SNB-75 CNS
SR leukemia = system: SR leukemia
SW-620 colon = system: SW-620 colon
T-47D breast = system: T-47D breast
TK-10 renal = system: TK-10 renal
U251 CNS = system: U251 CNS
UACC-257 melanoma = system: UACC-257 melanoma
UACC-62 melanoma = system: UACC-62 melanoma
UO-31 renal = system: UO-31 renal

## Cc1ccc(C(=O)NCCCOc2ccc(N3C(N)=NC(N)=NC3(C)C)cc2Cl)cc1S(=O)(=O)F
786-0 renal
  GI50: 80 µM
  TGI: > 100 µM
A498 renal
  GI50: > 100 µM
  TGI: > 100 µM
A549 NSCLC
  GI50: 39.5 µM
  TGI: > 100 µM
ACHN renal
  GI50: > 100 µM
  TGI: > 100 µM
BT-549 breast
  GI50: 43.1 µM
  TGI: > 100 µM
CAKI-1 renal
  GI50: > 100 µM
  TGI: > 100 µM
CCRF-CEM leukemia
  GI50: 5.33 µM
  TGI: > 100 µM
COLO 205 colon
  GI50: 38.1 µM
  TGI: > 100 µM
DU-145 prostate
  GI50: > 100 µM
  TGI: > 100 µM
EKVX NSCLC
  GI50: > 100 µM
  TGI: > 100 µM
HCC-2998 colon
  GI50: 24 µM
  TGI: > 100 µM
HCT-116 colon
  GI50: 15 µM
  TGI: > 100 µM
HCT-15 colon
  GI50: > 100 µM
  TGI: > 100 µM
HL-60(TB) leukemia
  GI50: > 100 µM
  TGI: > 100 µM
HOP-62 NSCLC
  GI50: > 100 µM
  TGI: > 100 µM
HOP-92 NSCLC
  GI50: > 100 µM
  TGI: > 100 µM
HS 578T breast
  GI50: > 100 µM
  TGI: > 100 µM
HT29 colon
  GI50: 6.61 µM
  TGI: > 100 µM
IGROV1 ovarian
  GI50: 4.42 µM
  TGI: > 100 µM
K-562 leukemia
  GI50: 8.81 µM
  TGI: > 100 µM
KM12 colon
  GI50: 39 µM
  TGI: > 100 µM
LOX IMVI melanoma
  GI50: 5.05 µM
  TGI: > 100 µM
M14 melanoma
  GI50: 44.7 µM
  TGI: > 100 µM
MALME-3M melanoma
  GI50: > 100 µM
  TGI: > 100 µM
MCF7 breast
  GI50: 22.4 µM
  TGI: > 100 µM
MDA-MB-231 breast
  GI50: > 100 µM
  TGI: > 100 µM
MDA-MB-435
  GI50: 56.7 µM
  TGI: > 100 µM
MOLT-4 leukemia
  GI50: > 100 µM
  TGI: > 100 µM
NCI-H226 lung
  GI50: > 100 µM
  TGI: > 100 µM
NCI-H23 lung
  GI50: 12.8 µM
  TGI: > 100 µM
NCI-H460 lung
  GI50: 8.44 µM
  TGI: > 100 µM
NCI-H522 lung
  GI50: 61.7 µM
  TGI: > 100 µM
NCI/ADR-RES ovarian
  GI50: > 100 µM
  TGI: > 100 µM
OVCAR-3 ovarian
  GI50: > 100 µM
  TGI: > 100 µM
OVCAR-4 ovarian
  GI50: 81.2 µM
  TGI: > 100 µM
OVCAR-5 ovarian
  GI50: > 100 µM
  TGI: > 100 µM
OVCAR-8 ovarian
  GI50: 85.8 µM
  TGI: > 100 µM
PC-3 prostate
  GI50: 5.9 µM
  TGI: > 100 µM
RPMI-8226 leukemia
  GI50: 24.7 µM
  TGI: > 100 µM
RXF 393 renal
  GI50: > 100 µM
  TGI: > 100 µM
SF-268 CNS
  GI50: 10.7 µM
  TGI: > 100 µM
SF-295 CNS
  GI50: > 100 µM
  TGI: > 100 µM
SF-539 CNS
  GI50: 8.1 µM
  TGI: > 100 µM
SK-MEL-2 melanoma
  GI50: > 100 µM
  TGI: > 100 µM
SK-MEL-28 melanoma
  GI50: 74.7 µM
  TGI: > 100 µM
SK-MEL-5 melanoma
  GI50: 4.78 µM
  TGI: > 100 µM
SK-OV-3 ovarian
  GI50: > 100 µM
  TGI: > 100 µM
SN12C renal
  GI50: 6.54 µM
  TGI: > 100 µM
SNB-19 CNS
  GI50: 75 µM
  TGI: > 100 µM
SNB-75 CNS
  GI50: 13.4 µM
  TGI: > 100 µM
SR leukemia
  GI50: > 100 µM
  TGI: > 100 µM
SW-620 colon
  GI50: 10.2 µM
  TGI: > 100 µM
T-47D breast
  GI50: > 100 µM
  TGI: > 100 µM
TK-10 renal
  GI50: > 100 µM
  TGI: > 100 µM
U251 CNS
  GI50: 7.72 µM
  TGI: > 100 µM
UACC-257 melanoma
  GI50: > 100 µM
  TGI: > 100 µM
UACC-62 melanoma
  GI50: 9.39 µM
  TGI: > 100 µM
UO-31 renal
  GI50: > 100 µM
  TGI: > 100 µM
